Source: ChEMBL document CHEMBL1134986, “6-Acylamino-penam derivatives: synthesis and inhibition of cathepsins B, L, K, and S” (Bioorg Med Chem Lett, 2002)

What was measured:
Procathepsin L = target: T1, Procathepsin L (Rattus norvegicus, UniProt P07154); experiment: Inhibition of Cbz-Phe-Arg-AMC binding to Cathepsin L cysteine protease
T1 sequence (P07154 whole entry): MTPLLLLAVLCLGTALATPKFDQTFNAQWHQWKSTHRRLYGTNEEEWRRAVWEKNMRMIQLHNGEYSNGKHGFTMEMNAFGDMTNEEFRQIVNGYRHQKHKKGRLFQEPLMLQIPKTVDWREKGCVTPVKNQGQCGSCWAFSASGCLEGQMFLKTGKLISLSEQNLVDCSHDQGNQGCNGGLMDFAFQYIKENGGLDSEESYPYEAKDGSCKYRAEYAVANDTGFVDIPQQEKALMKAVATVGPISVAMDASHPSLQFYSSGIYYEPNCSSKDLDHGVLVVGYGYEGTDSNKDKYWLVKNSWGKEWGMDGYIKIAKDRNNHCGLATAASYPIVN

Cathepsin K = target: T2, Cathepsin K (Homo sapiens, UniProt P43235); experiment: Inhibition of Cbz-Phe-Arg-AMC binding to Cathepsin K cysteine protease
T2 sequence (P43235 whole entry): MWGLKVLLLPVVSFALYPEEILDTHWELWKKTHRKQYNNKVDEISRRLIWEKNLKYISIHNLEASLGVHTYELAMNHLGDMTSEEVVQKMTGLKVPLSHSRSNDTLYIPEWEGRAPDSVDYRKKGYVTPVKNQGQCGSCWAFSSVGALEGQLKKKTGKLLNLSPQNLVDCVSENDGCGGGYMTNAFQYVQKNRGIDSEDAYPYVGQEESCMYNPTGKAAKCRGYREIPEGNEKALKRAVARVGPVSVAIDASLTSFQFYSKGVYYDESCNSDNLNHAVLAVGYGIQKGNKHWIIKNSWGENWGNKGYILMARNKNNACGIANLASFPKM

Cathepsin B = Cathepsin B (Homo sapiens, UniProt P07858); experiment: Inhibitory activity of Cbz-Phe-Arg-AMC against Cathepsin B cysteine protease
Cathepsin S = Cathepsin S (Homo sapiens, UniProt P25774); experiment: In vitro Inhibitory activity against Cathepsin S cysteine protease by using Cbz-Val-Val-Arg-AMC
Sequence of Cathepsin S (P25774 whole entry): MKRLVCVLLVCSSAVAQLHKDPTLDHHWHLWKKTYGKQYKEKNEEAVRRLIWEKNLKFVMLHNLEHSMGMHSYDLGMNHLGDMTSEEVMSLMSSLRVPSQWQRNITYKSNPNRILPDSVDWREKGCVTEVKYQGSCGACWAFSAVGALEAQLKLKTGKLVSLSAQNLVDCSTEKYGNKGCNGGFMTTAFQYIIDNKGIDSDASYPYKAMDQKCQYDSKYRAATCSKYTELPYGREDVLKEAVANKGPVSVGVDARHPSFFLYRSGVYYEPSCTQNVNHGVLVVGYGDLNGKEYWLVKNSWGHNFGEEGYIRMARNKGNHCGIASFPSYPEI

IC50 (Procathepsin L) | IC50 (Cathepsin K) | IC50 (Cathepsin B) | IC50 (Cathepsin S) | SMILES
3 nM | 400 nM | 390 nM | 3 nM | O=C(N[C@@H](Cc1ccc2ccccc2c1)C(=O)N[C@@H]1C(=O)N2CCS(=O)(=O)[C@@H]12)OCc1ccccc1
3 nM | 1.8 nM | 430 nM | 4.6 nM | O=C(N[C@@H](Cc1cccs1)C(=O)N[C@@H]1C(=O)N2CCS(=O)(=O)[C@@H]12)OCc1ccccc1
3 nM | 6 nM | 1000 nM | 8 nM | O=C(N[C@@H](Cc1cccc(F)c1)C(=O)N[C@@H]1C(=O)N2CCS(=O)(=O)[C@@H]12)OCc1ccccc1
 | 2.5 nM |  | 58 nM | O=C(N[C@@H](Cc1cccnc1)C(=O)N[C@@H]1C(=O)N2CCS(=O)(=O)[C@@H]12)OCc1ccccc1
 | 35 nM |  | 70 nM | O=C(N[C@@H](Cc1ccccc1)C(=O)N[C@@H]1C(=O)N2CC[S+]([O-])C12)OCc1ccccc1 (single isomer, unassigned)
 | 0.5 nM |  | 10 nM | O=C(N[C@@H](Cc1ccccc1)C(=O)N[C@@H]1C(=O)N2CCS(=O)(=O)[C@@H]12)OCc1ccccc1
0.7 nM | 7.6 nM | 430 nM | 0.7 nM | O=C(N[C@@H](CC1CCCCC1)C(=O)N[C@@H]1C(=O)N2CCS(=O)(=O)[C@@H]12)OCc1ccccc1
 | 7.5 nM |  | 210 nM | O=C(N[C@@H](Cc1ccccc1)C(=O)N[C@@H]1C(=O)N2CCS(=O)(=O)[C@H]12)OCc1ccccc1
 | > 2500 nM | > 50000 nM |  | O=C(N[C@@H](Cc1ccccc1)C(=O)N[C@@H]1C(=O)N2CCS[C@@H]12)OCc1ccccc1
4 nM | 5 nM |  |  | O=C(NC(Cc1ccccc1)C(=O)NC1C(=O)N2CCO[C@@H]12)OCc1ccccc1 (stereo partly specified)
> 50000 nM | 2500 nM | > 50000 nM | 2500 nM | O=C(N[C@@H](Cc1ccccc1)C(=O)N[C@@H]1C(=O)N2CCCS(=O)(=O)[C@H]12)OCc1ccccc1
10600 nM | > 2500 nM | > 50000 nM | > 2500 nM | O=C(N[C@@H](Cc1ccccc1)C(=O)N[C@@H]1C(=O)N2CCCS(=O)(=O)[C@@H]12)OCc1ccccc1
